35 molecules from patent publication US3995059A, “Pharmaceutical compositions containing fatty acid amide derivatives” (Sumitomo Chemical Company, Limited, priority 1966, dated 1976) can be followed below.

Bounds are passed on as bounds.

Data set [1] in a line: Acute oral toxicity, LD50 (Table 2). As to conditions: in vivo, mouse, P.O. How it is done: The extremely low toxicities of the present acid-amide compounds are illustrated in Table 2, in which the acute toxicities of some of the present compounds in mice are listed.
As is seen from Table 2, no fatal case and no significant toxic symptoms were observed even in such large doses (per os) as 0.5 g. per 10 g., namely 50 g./kg. of the body weight. Also, no significant toxic symptoms, or fatal cases, were observed when the amides in amounts of 1, 0.5 or 0.2% in the diet were administered to mice everyday for three weeks. The appetite was normal and digestive functions were unchanged. When the internal organs were inspected by dissection, there was no appreciable change.

A further data set relates to Serum cholesterol. Briefly: Serum cholesterol of rabbits fed a cholesterol rich diet. The class given is in vivo. As to conditions: 200 mg/day with cholesterol rich diet.
Data set [2] concerns total cholesterol value in the blood serum. Briefly: Total cholesterol in blood serum of mice fed a diet enriched with cholesterol and bile acids (Table 1). The class given is in vivo. As to conditions: 0.2% in diet, oral, 8 to 12 days. On the procedure: The effectiveness of the compounds was tested by using mice fed on a specific diet which was enriched with cholesterol and bile acids. […] The amide compound as well was mixed with the specific diet in an amount of 0.2%, and continuously administered orally for 8 to 12 days. Then the total cholesterol value in the blood serum of the animals was evaluated.

The subject of the next data set is liver cholesterol. Put plainly: Liver cholesterol (deposition of cholesterol and fat in the liver) of mice fed a cholesterol-rich diet (Table 1). The class given is in vivo. As to conditions: 0.2% in diet, oral, 8 to 12 days.
A further data set deals with Rabbit serum cholesterol. Put plainly: Rabbit serum cholesterol lowering ratio after 9 weeks. As to conditions: control 0%. The class given is in vivo.

In turn, `CCCCC/C=C\C/C=C\CCCCCCCC(=O)NC(Cc1ccccc1)c1ccccc1` (centres unmarked) registered an LD50 in data set [1] of over 50000 mg/kg.
For the molecule `CCCCC/C=C\C/C=C\CCCCCCCC(=O)N(C1CCCCC1)C1CCCCC1` [N,N-dicyclohexyl linoleamide], the Serum cholesterol is 250 mg. % in the data set with Serum cholesterol (2 weeks, control 250); 120 mg. % in the data set with Serum cholesterol (4 weeks, control 563); 62 mg. % in the data set with Serum cholesterol (6 weeks, control 890); 62 mg. % with Serum cholesterol (8 weeks, control 1150); 65 mg. % with Serum cholesterol (10 weeks, control 1750).
The molecule `CCCCCCCC/C=C\CCCCCCCC(=O)NC(C)c1ccc(CC)cc1` (centres unmarked) [drawing 64] registered a Serum cholesterol in data set [2] (experiment [X], control 554) of 254 mg %. The molecule also registered a Liver cholesterol in the data set with liver cholesterol (experiment [X], control 3293) of 841 mg/100 g.
Turning to `CC/C=C\C/C=C\C/C=C\CCCCCCCC(=O)NC(C)c1ccc(C)cc1` (centres unmarked) [drawing 66], the Serum cholesterol in data set [2] (experiment [X], control 554) is 249 mg %. Further, the Liver cholesterol in the data set on liver cholesterol (experiment [X], control 3293) came to 1000 mg/100 g.
As to `CC/C=C\C/C=C\C/C=C\CCCCCCCC(=O)NC(C)c1ccc(C)cc1` (centres unmarked) [drawing 67], the Serum cholesterol in data set [2] (experiment [X], control 554) is listed as 295 mg %. In addition, in the data set with liver cholesterol (experiment [X], control 3293), the Liver cholesterol came out at 1015 mg/100 g.
In data set [2] (experiment [XI], control 595), `CCCCC/C=C\C/C=C\CCCCCCCC(=O)NC(C)c1ccc(Cl)cc1` (centres unmarked) [drawing 72] came in with a Serum cholesterol of 230 mg %. This molecule also had a Liver cholesterol with liver cholesterol (experiment [XI], control 3451) of 845 mg/100 g.
In the same order, the values of `CCCCC/C=C\C/C=C\CCCCCCCC(=O)NC(C)c1ccc([N+](=O)[O-])cc1` (centres unmarked) [drawing 73] are 275 mg % and 1011 mg/100 g.
On to `CCCCC/C=C\C/C=C\CCCCCCCC(=O)NC(C)c1ccc([N+](=O)[O-])cc1` (centres unmarked) [drawing 74], for which the Serum cholesterol in data set [2] (experiment [XI], control 595) worked out at 315 mg %. The Liver cholesterol in the data set with liver cholesterol (experiment [XI], control 3451) worked out at 1098 mg/100 g.
For `CCCCCCCC/C=C\CCCCCCCC(=O)NC(C)c1ccc(Br)cc1` (centres unmarked) [drawing 78] the same measures were 253 mg % and 921 mg/100 g.
`CCCCCCCC/C=C\CCCCCCCC(=O)NC(C)c1ccc(Br)cc1` (centres unmarked) [drawing 79] returned a Serum cholesterol in data set [2] (experiment [XI], control 595) of 277 mg %. In addition, the Liver cholesterol in the data set with liver cholesterol (experiment [XI], control 3451) amounted to 1009 mg/100 g.
For `CCCCCCCC/C=C\CCCCCCCC(=O)NC(CC)c1cccc([N+](=O)[O-])c1` (centres unmarked) [drawing 81] the same measures were 289 mg % and 906 mg/100 g.
As to `CCCCCCCC/C=C\CCCCCCCC(=O)NC(CC)c1cccc([N+](=O)[O-])c1` (centres unmarked) [drawing 82], in data set [2] (experiment [XI], control 595), the Serum cholesterol came out at 315 mg %. This molecule registered a Liver cholesterol in the data set with liver cholesterol (experiment [XI], control 3451) of 1125 mg/100 g.
In data set [2] (experiment [XI], control 595), `CCCCCCCC/C=C\CCCCCCCC(=O)NC(C)c1ccc(OC)cc1` (centres unmarked) [drawing 84] gave a Serum cholesterol of 306 mg %. The molecule also yielded a Liver cholesterol with liver cholesterol (experiment [XI], control 3451) of 1069 mg/100 g.
Molecule `CCCCCCCC/C=C\CCCCCCCC(=O)NC(C)c1ccc(OC)cc1` (centres unmarked) [drawing 85] returned a Serum cholesterol in data set [2] (experiment [XI], control 595) of 318 mg %. The same molecule yielded a Liver cholesterol with liver cholesterol (experiment [XI], control 3451) of 1115 mg/100 g.
In the same order, the values of `CC/C=C\C/C=C\C/C=C\CCCCCCCC(=O)NC(C)c1cccc(Cl)c1` (centres unmarked) [drawing 95] are 275 mg % and 995 mg/100 g.
The molecule `CC/C=C\C/C=C\C/C=C\CCCCCCCC(=O)NC(C)c1cccc(Cl)c1` (centres unmarked) [drawing 96] yielded a Serum cholesterol in data set [2] (experiment [XI], control 595) of 300 mg %. Also, the Liver cholesterol in the data set with liver cholesterol (experiment [XI], control 3451) was determined as 1029 mg/100 g.
For `CC/C=C\C/C=C\C/C=C\CCCCCCCC(=O)NC(CC)c1ccc([N+](=O)[O-])cc1` (centres unmarked) [drawing 97] the same measures were 245 mg % and 1004 mg/100 g.
As to `CC/C=C\C/C=C\C/C=C\CCCCCCCC(=O)NC(CC)c1ccc([N+](=O)[O-])cc1` (centres unmarked) [drawing 98], the Serum cholesterol in data set [2] (experiment [XI], control 595) was 365 mg %. Further, the Liver cholesterol in the data set with liver cholesterol (experiment [XI], control 3451) is given as 1325 mg/100 g.
In turn, `CC/C=C\C/C=C\C/C=C\CCCCCCCC(=O)NC(Cc1ccccc1)c1ccccc1` (centres unmarked) [drawing 99] displayed a Serum cholesterol in data set [2] (experiment [XI], control 595) of 240 mg %. This molecule came in with a Liver cholesterol in the data set with liver cholesterol (experiment [XI], control 3451) of 623 mg/100 g.
`CC/C=C\C/C=C\C/C=C\CCCCCCCC(=O)NC(Cc1ccccc1)c1ccccc1` (centres unmarked) [drawing 100] came in with a Serum cholesterol in data set [2] (experiment [XI], control 595) of 275 mg %. The molecule further displayed a Liver cholesterol in the data set with liver cholesterol (experiment [XI], control 3451) of 1632 mg/100 g.
On to `CC/C=C\C/C=C\C/C=C\CCCCCCCC(=O)NC(CC)c1ccc(OC)cc1` (centres unmarked) [drawing 102], for which the Serum cholesterol in data set [2] (experiment [XI], control 595) turned out to be 280 mg %. Further, the Liver cholesterol in the data set on liver cholesterol (experiment [XI], control 3451) is given as 870 mg/100 g.
Molecule `CC/C=C\C/C=C\C/C=C\CCCCCCCC(=O)NC(CC)c1ccc(OC)cc1` (centres unmarked) [drawing 103] had a Serum cholesterol in data set [2] (experiment [XI], control 595) of 339 mg %. For the same molecule, the Liver cholesterol in the data set with liver cholesterol (experiment [XI], control 3451) came to 1620 mg/100 g.
In turn, `CCCCC/C=C\C/C=C\CCCCCCCC(=O)NC(C)c1ccccc1` (centres unmarked) [drawing 136] registered a 50% lethal dose (LD50) in data set [1] of over 50000 mg/kg.
`CCCCC/C=C\C/C=C\CCCCCCCC(=O)NC(C)c1ccc(C)cc1` (centres unmarked) [drawing 138] yielded an LD50 in data set [1] of over 50000 mg/kg.
As for `CCCCC/C=C\C/C=C\CCCCCCCC(=O)NC12CC3CC(CC(C3)C1)C2` [drawing 140], the LD50 in data set [1] is over 50000 mg/kg.
In the case of `CCCCC/C=C\C/C=C\CCCCCCCC(=O)NC(C)c1ccccc1` (centres unmarked) [drawing 144], the Serum cholesterol with Serum cholesterol (2 weeks, control 250) was 250 mg. %; with Serum cholesterol (4 weeks, control 563), 130 mg. %; in the data set with Serum cholesterol (6 weeks, control 890), 65 mg. %; in the data set on Serum cholesterol (8 weeks, control 1150), 60 mg. %; in the data set with Serum cholesterol (10 weeks, control 1750) it was 52 mg. %.
Regarding `CCCCC/C=C\C/C=C\CCCCCCCC(=O)NC(C)c1ccc(C)cc1` (centres unmarked) [drawing 145], in the data set on Rabbit serum cholesterol (100 mg/kg/day), the “Rabbit serum cholesterol Towering ratio (after 9 weeks)” value was 60.1%.
On the same count and under the same terms, the result for `CCCCC/C=C\C/C=C\CCCCCCCC(=O)NC(CC)c1ccc(C)cc1` (centres unmarked) [drawing 146] reads 59.2%; that for `CCCCC/C=C\C/C=C\CCCCCCCC(=O)NC(C)c1ccc(Cl)cc1` (centres unmarked) [drawing 147], 80.1%; that for `CCCCC/C=C\C/C=C\CCCCCCCC(=O)NC(C)c1ccc(Cl)c(Cl)c1` (centres unmarked) [drawing 148], 61.5%.
For `CC/C=C\C/C=C\C/C=C\CCCCCCCC(=O)NC(C)c1ccccc1C` (centres unmarked) [drawing 151], the “Rabbit serum cholesterol Towering ratio (after 9 weeks)” value in the data set on Rabbit serum cholesterol (100 mg/kg/day) was 54.5%.
Turning to `CC(C)CCCCCCCCCCCCCCC(=O)NC(Cc1ccccc1)c1ccccc1` (centres unmarked) [iso-C17 H35 CO], the Serum cholesterol in data set [2] (experiment [V], control 372) stood at 221 mg %. The molecule further registered a Liver cholesterol with liver cholesterol (experiment [V], control 2640) of 609 mg/100 g.
For `CCCCCC=CCC=CCCCCCCCC(=O)NC(Cc1ccccc1)c1ccccc1` (stereo not drawn) [l- C17 H31 CO] the same measures were 208 mg % and 623 mg/100 g.
The molecule `CCCCCCCC/C=C\CCCCCCCC(=O)NC(Cc1ccccc1)c1ccccc1` (stereo not drawn) [l- drawing 33] returned a Serum cholesterol in data set [2] (experiment [V], control 372) of 263 mg %. Besides, the Liver cholesterol with liver cholesterol (experiment [V], control 2640) came to 888 mg/100 g.
Regarding `CC[C@H](CC[C@@H](C)[C@H]1CC[C@H]2[C@@H]3CC=C4C[C@@H](O)CC[C@]4(C)[C@H]3CC[C@]12C)C(C)C` [β-Sitosterol, reference compound], in the data set on Rabbit serum cholesterol (800 mg/kg/day), the “Rabbit serum cholesterol Towering ratio (after 9 weeks)” value turned out to be 21.2%. The Serum cholesterol in the data set on Serum cholesterol (2 weeks, control 250) is 250 mg. %; in the data set on Serum cholesterol (4 weeks, control 563), 438 mg. %; in the data set with Serum cholesterol (6 weeks, control 890), 875 mg. %; with Serum cholesterol (8 weeks, control 1150), 1063 mg. %; in the data set with Serum cholesterol (10 weeks, control 1750) it was 1200 mg. %.

The term LD50 denotes the dose at which mortality reaches 50%. Lower therefore signals a more toxic substance.
